Activity calls are given as the source filed them. The rule behind the calls is not given here.
Assays:
[1] = Dissociation constant (pKa); format: physicochemical
[2] = Partition coefficient (logD7.4); format: physicochemical; conditions: octanol/water, pH 7.4
Rattus norvegicus [3] = assay: Intrinsic sympathomimetic activity (ISA) in the reserpinized normotensive anesthetized rats following intravenous administration at 1000 ug/kg; format: functional
Rattus norvegicus [4] = assay: Intrinsic sympathomimetic activity (ISA) measured as max. increase in heart rate over 60 min in reserpinized normotensive anesthetized rats at 1000 ug/kg iv; format: functional; set-up: unit not given here
Rattus norvegicus [5] = assay: Effective dose was evaluated following intravenous administration in reserpinized normotensive anesthetized rats; format: functional
[6] = biological target: Beta-2 adrenergic receptor (Cavia porcellus) (UniProt Q8K4Z4)
Rattus norvegicus [7] = assay: Intrinsic sympathomimetic activity (ISA) measured as max increase in heart rate over 60 min in the reserpinized normotensive anesthetized rats at 1000 ug/kg iv; format: functional
[8] = biological target: Beta-1 adrenergic receptor (Cavia porcellus, UniProt B0FL73); assay: In vitro inhibitory activity against beta-1 adrenergic receptor was measured by the inhibition of the positive chronotropic effect of isoproterenolin in isolated guinea pig atria.; conditions: read-out: pA2 (converted)
Beta-1 adrenergic receptor, sequence (B0FL73 whole entry): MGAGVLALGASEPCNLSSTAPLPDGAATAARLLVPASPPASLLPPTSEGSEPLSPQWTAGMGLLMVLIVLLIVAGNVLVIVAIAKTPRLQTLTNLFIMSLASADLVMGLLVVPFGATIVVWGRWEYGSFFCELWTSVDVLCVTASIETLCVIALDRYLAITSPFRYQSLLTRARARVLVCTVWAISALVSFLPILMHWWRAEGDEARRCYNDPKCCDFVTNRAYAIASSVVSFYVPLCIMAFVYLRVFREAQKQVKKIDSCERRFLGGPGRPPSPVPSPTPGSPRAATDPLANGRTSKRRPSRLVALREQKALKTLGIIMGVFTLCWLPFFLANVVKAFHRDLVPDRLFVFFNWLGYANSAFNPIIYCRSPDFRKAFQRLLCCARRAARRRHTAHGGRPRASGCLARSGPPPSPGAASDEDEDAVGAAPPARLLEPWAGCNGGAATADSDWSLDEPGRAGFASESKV

Beta-2 adrenergic receptor (Cavia porcellus), sequence (Q8K4Z4 whole entry, looked up): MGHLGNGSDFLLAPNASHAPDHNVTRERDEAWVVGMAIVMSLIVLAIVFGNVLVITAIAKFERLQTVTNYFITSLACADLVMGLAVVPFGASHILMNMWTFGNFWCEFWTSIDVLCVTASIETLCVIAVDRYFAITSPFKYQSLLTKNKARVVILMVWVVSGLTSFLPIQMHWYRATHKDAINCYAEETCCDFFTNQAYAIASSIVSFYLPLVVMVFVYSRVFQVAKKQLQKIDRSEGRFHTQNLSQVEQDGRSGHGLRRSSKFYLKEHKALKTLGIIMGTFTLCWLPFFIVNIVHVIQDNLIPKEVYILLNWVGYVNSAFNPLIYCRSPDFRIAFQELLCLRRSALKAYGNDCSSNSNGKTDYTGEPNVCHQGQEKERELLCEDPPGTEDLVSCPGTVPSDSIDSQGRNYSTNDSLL

Structure (SMILES)	pKa [1]	logD [2]	Max increase (Rattus norvegicus [4])	also measured
Cc1c[nH]c(Cc2ccc(OCC(O)CNC(C)(C)C)cc2)n1 (stereo not drawn)	6.93	-0.638	–	–
COc1ccc(CCNCC(O)COc2ccc(-c3nc(-c4cccs4)c[nH]3)cc2C)cc1OC (stereo not drawn)	4.55	2.76	21	–
COc1ccc(CCNCC(O)COc2ccc(-c3nc(CN4CCOCC4)c[nH]3)cc2)cc1OC (stereo not drawn)	3.54	0.215	30	–
COc1ccc(CCNCC(O)COc2ccc(-c3nc(C)c[nH]3)cc2Br)cc1OC (stereo not drawn)	5.7	1.6	–	–
CCCCNC(=O)NCCNCC(O)COc1ccc(-c2nc(C)c[nH]2)cc1 (stereo not drawn)	3.6	0.699	–	–
N#Cc1ccccc1OCC(O)CNCCNC(=O)Nc1ccccc1.O (stereo not drawn)	–	–	–	ED50 (Rattus norvegicus [5]): 0.0029 mg/kg
OC(CNCCc1ccncc1)COc1ccc(-c2nc(-c3cccs3)c[nH]2)cc1 (stereo not drawn)	3.8	1.9	–	ED50 (Rattus norvegicus [5]): 0.0654 mg/kg
CC(C)NCC(O)COc1ccc(-c2nc(C(C)C)c[nH]2)cc1 (stereo not drawn)	6.32	0.952	–	–
COc1ccc(CCNCC(O)COc2ccc(-c3nc(-c4cccs4)c[nH]3)cc2)cc1OC (stereo not drawn)	–	–	–	ED50 (Rattus norvegicus [5]): 0.0479 mg/kg
CCOCCNC[C@H](O)COc1ccc(-c2nc(-c3cccs3)c[nH]2)cc1	4.6	1.86	–	ED50 (Rattus norvegicus [5]): 0.0784 mg/kg
CC(C)NCC(O)COc1ccc(-c2ncc[nH]2)cc1 (stereo not drawn)	5.65	-0.569	53	–
COc1ccc(CCNCC(O)COc2ccc(-c3nc(Br)c[nH]3)cc2Cl)cc1OC (stereo not drawn)	3.3	2.31	48	–
CC(C)NCC(O)COc1ccc(Cc2nc(Br)c[nH]2)cc1 (stereo not drawn)	3.75	0.204	7	Kb [8]: 3.16 nM
COc1ccc(CCNC[C@H](O)COc2ccc(Cc3nc(C(C)=O)c[nH]3)cc2)cc1OC	3.95	0.301	0	–
CCCNCC(O)COc1ccc(-c2nc(-c3cccs3)c[nH]2)cc1 (stereo not drawn)	4.79	1.41	–	–
CCOCCNCC(O)COc1ccc(-c2nc(-c3cccs3)c[nH]2)cc1 (stereo not drawn)	4.5	1.78	–	–
CC(C)NCC(O)COc1ccc(-c2nc(-c3cccs3)c[nH]2)cc1 (stereo not drawn)	4.9	1.18	–	–
COc1ccc(CCNCC(O)COc2ccc(-c3nc(C)c[nH]3)cc2OC)cc1OC (stereo not drawn)	6.35	0.968	–	–
COc1ccc(CCNCC(O)COc2ccc(-c3nc(-c4cccs4)c[nH]3)cc2Cl)cc1OC (stereo not drawn)	4.02	2.34	19	–
O=C(NCCNCC(O)COc1ccc(-c2ncc[nH]2)cc1)Nc1ccccc1 (stereo not drawn)	5.75	0.778	–	–
COc1ccc(CCNC[C@H](O)COc2ccc(-c3nc(-c4cccs4)c[nH]3)cc2)cc1OC.Cl.Cl	–	–	19	–

Continued, in another order:

pKa [1]	logD [2]	Structure (SMILES)	Max increase (Rattus norvegicus [4])	also measured
5.8	1.98	COc1ccc(CCNCC(O)COc2ccc(-c3nc(Br)c(C)[nH]3)cc2)cc1OC (stereo not drawn)	–	Max increase (Rattus norvegicus [3]): 23
5.9	1.32	COCCc1c[nH]c(-c2ccc(OCC(O)CNCCc3ccc(OC)c(OC)c3)cc2)n1 (stereo not drawn)	75	–
3.6	0.694	COc1ccc(CCNC[C@H](O)COc2ccc(-c3nc(C(C)=O)c[nH]3)cc2)cc1OC	–	ED50 (Rattus norvegicus [5]): 0.0074 mg/kg
8.4	1.6	COc1ccc(CCNCC(O)COc2ccc(-c3ncco3)cc2)cc1OC (stereo not drawn)	19	–
–	0.505	COc1ccc(CCNCC(O)COc2ccc(-c3nccs3)cc2)cc1OC (stereo not drawn)	70	–
5.64	0.799	COCc1c[nH]c(-c2ccc(OCC(O)CNCCc3ccc(OC)c(OC)c3)cc2)n1 (stereo not drawn)	38	pA2 [6]: Active
5.45	1.53	COc1ccc(CCNCC(O)COc2ccc(CCc3nc(-c4cccs4)c[nH]3)cc2)cc1OC (stereo not drawn)	0	–
6.42	2.2	COc1ccc(CCNC[C@H](O)COc2ccc(-c3nc(C(C)(C)C)c[nH]3)cc2)cc1OC	–	Max increase (Rattus norvegicus [7]): 21
5.55	0	COc1ccc(CCNCC(O)COc2ccc(-c3nc(CO)c[nH]3)cc2)cc1OC (stereo not drawn)	–	–
3.65	1.24	COc1ccc(CCNCC(O)COc2ccc(-c3nc(Br)c[nH]3)cc2)cc1OC (stereo not drawn)	–	ED50 (Rattus norvegicus [5]): 0.0064 mg/kg
5.5	0.633	COc1ccc(CCNCC(O)COc2ccc(COCc3ncc[nH]3)cc2)cc1OC (stereo not drawn)	2	–
3.8	1.41	CCOC(=O)c1c[nH]c(-c2ccc(OCC(O)CNCCc3ccc(OC)c(OC)c3)cc2)n1 (stereo not drawn)	60	–
5.2	0.663	COc1ccc(CCNCC(O)COc2ccc(OCc3ncc[nH]3)cc2)cc1OC (stereo not drawn)	–	–
3.48	1.61	COc1ccc(CCNCC(O)COc2ccc(-c3nc(Cl)c[nH]3)cc2)cc1OC (stereo not drawn)	42	–
4.92	0.839	COCc1[nH]c(-c2ccc(OCC(O)CNCCc3ccc(OC)c(OC)c3)cc2)nc1C (stereo not drawn)	–	–
4.99	1.58	COc1ccc(CCNCC(O)COc2ccc(Cc3nc(-c4cccs4)c[nH]3)cc2)cc1OC (stereo not drawn)	3	–
7.01	0.301	COc1ccc(CCNCC(O)COc2ccc(Cc3nc(C)c[nH]3)cc2)cc1OC (stereo not drawn)	0	–
6.7	0.881	COc1ccc(CCNCC(O)COc2ccc(-c3nccn3C)cc2)cc1OC.Cl.Cl (stereo not drawn)	47	–
3.6	0.279	COc1ccc(CCNCC(O)COc2ccc(-c3nc(C(N)=O)c[nH]3)cc2)cc1OC (stereo not drawn)	47	–
6.72	1.02	COc1ccc(CCNCC(O)COc2ccc(-c3nc(C)c(C)[nH]3)cc2)cc1OC (stereo not drawn)	19	–
6.78	1.79	COc1ccc(CCNCC(O)COc2ccc(-c3nc(C(C)C)c[nH]3)cc2)cc1OC (stereo not drawn)	24	–
3.62	1.88	COc1ccc(CCNCC(O)COc2ccc(-c3nc(C)c(Cl)[nH]3)cc2)cc1OC (stereo not drawn)	–	Max increase (Rattus norvegicus [3]): 19
6.2	2.09	COc1ccc(CCNCC(O)COc2ccc(-c3nc(C(C)(C)C)c[nH]3)cc2)cc1OC (stereo not drawn)	48	–
3.65	1	COc1ccc(CCNCC(O)COc2ccc(CCc3nc(Br)c[nH]3)cc2)cc1OC (stereo not drawn)	–	–
4	1.28	COc1ccc(CCNCC(O)COc2ccc(-c3nc(C(C)=O)c(C)[nH]3)cc2)cc1OC (stereo not drawn)	24	–
5.25	0.312	CCOCc1c[nH]c(-c2ccc(OCC(O)CNCCc3ccc(OC)c(OC)c3)cc2)n1 (stereo not drawn)	27	–
